Results taken from patent US20090048112A1, “Novel Herbicides” (SYNGENTA LIMITED, priority 2005, published 2009).

Columns and labels:
[1] = test system: Amaranthus retroflexus (redroot pigweed); assay: Example B2: herbicidal action post emergence, 500 g/ha; assay type: in vivo; conditions: applied to the foliage, 13 days after application, 0 is no damage to plants, 100 is plants completely dead
Procedure: (§1) Monocotyledonous and dicotyledonous test plants were sown in seed trays in standard compost and were grown for eight days. The trays were watered twice daily or as required. The chemicals were applied by track sprayer to the foliage. The application was carried out with an aqueous suspension of the test substances, prepared as a formulation of 50% acetone in water with 0.5% Tween 20™ (CAS RN 9005-64-5), to achieve a field equivalent of 1000 l/ha. The application rate of the test substances was 500 g/ha. A visual assessment of the herbicidal effect was made at 13 days after application. The following percentage scale was used for assessment: 0, 5, 10, 20, 30, 40, 50, 60, 70, 80, 90, 95, 100 (where O is no damage to plants and 100 is plants are completely dead).

[2] = test system: Alopecurus myosuroides (slender foxtail); assay: as above; assay type: in vivo; conditions: applied to the foliage, 13 days after application, 0 is no damage to plants, 100 is plants completely dead
Procedure: as §1

[3] = test system: Stellaria media (chickweed); assay: as above; assay type: in vivo; conditions: applied to the foliage, 13 days after application, 0 is no damage to plants, 100 is plants completely dead
Procedure: as §1

[4] = test system: Echinochloa crus-galli (barnyard grass); assay: as above; assay type: in vivo; conditions: applied to the foliage, 13 days after application, 0 is no damage to plants, 100 is plants completely dead
Procedure: as §1

[5] = test system: Monocotyledonous and dicotyledonous test plants; assay: Example B1: herbicidal action prior to emergence (pre-emergence), 500 g/ha; assay type: in vivo; conditions: 13 days after application, 0 = no damage, 100 = plants completely dead; for ALOMY herbicidal effect (visual assessment, percentage scale): Alopecurus myosuroides (slender foxtail); for AMARE herbicidal effect (visual assessment, percentage scale): Amaranthus retroflexus (redroot pigweed); for ECHCG herbicidal effect (visual assessment, percentage scale): Echinochloa crus-galli (barnyard grass); for STEME herbicidal effect (visual assessment, percentage scale): Stellaria media (chickweed)
Procedure: as §1, with “standard compost.” for “standard compost and were grown for eight days.”, “sprayer at” for “sprayer to”, “the soil surface.” for “the foliage.”, “(where 0” for “(where O”

[6] = test system: Monocotyledonous and dicotyledonous test plants; assay: Example B3: herbicidal action prior to emergence (pre-emergence), 96-cell seed trays, 1000 g/ha; assay type: in vivo; design: key: 0 is no damage to plant; 5 is total damage to plant; conditions: 9 days after application
In short: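 Soil-surface pre-emergence spray at 1000 g/ha in water with 10% DMSO (1000 l/ha equivalent), applied one day after sowing in sterilised soil. Plants kept in a climatic chamber (24/19 °C day/night, 13 h light, 50-60% humidity); damage scored visually 0-5 at 9 days after application.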

melting point [°C]	Compound	AMARE, visual assessment of the herbicidal effect [1] [%]	ALOMY, visual assessment of the herbicidal effect [2] [%]	STEME, visual assessment of the herbicidal effect [3] [%]	ECHCG, visual assessment of the herbicidal effect [4] [%]	ALOMY herbicidal effect (visual assessment, percentage scale) [5] [%]	AMARE herbicidal effect (visual assessment, percentage scale) [5] [%]	ECHCG herbicidal effect (visual assessment, percentage scale) [5] [%]	STEME herbicidal effect (visual assessment, percentage scale) [5] [%]	AGSTE herbicidal effect (visual assessment, scale 0-5) ([6]; Agrostis tenius (Colonial bentgrass))	AMARE herbicidal effect (visual assessment, scale 0-5) ([6]; Amaranthus retroflexus (redroot pigweed))	DIGSA herbicidal effect (visual assessment, scale 0-5) ([6]; Digitaria sanguinalis (hairy finger-grass))	POATR herbicidal effect (visual assessment, scale 0-5) ([6]; Poa trivialis (rough blue grass))	SETIT herbicidal effect (visual assessment, scale 0-5) ([6]; Setaria italica (foxtail millet))
	CC(c1c(C(F)(F)F)nn(C)c1OCC(F)(F)F)S(=O)(=O)c1ncc(Cl)s1 (racemic) [1.096]	80	90	70	80	95	95	95	95	5	5	5	5	5
118 to 120	Cn1nc(C(F)(F)F)c(CSc2ncc(C(N)=O)s2)c1OCC(F)(F)F [1.121, 2-[1-methyl-5-(2,2,2-trifluoro-ethoxy)-3-trifluoromethyl-1H-pyrazol-4-ylmethylsulfanyl]-thiazole-5-carboxylic acid amide]													
	Cn1nc(C(F)(F)F)c(C[S+]([O-])c2ncc(Br)s2)c1OCC(F)(F)F (stereo not drawn) [Compound No. 1.002, 5-bromo-2-[1-methyl-5-(2,2,2-trifluoroethoxy)-3-trifluoromethyl-1H-pyrazol-4-ylmethanesulfinyl]-thiazole]	95	95	90	95	95	100	95	100					
	Cn1nc(C(F)(F)F)c(CSc2ncc(Br)s2)c1Cl [Compound No. 1.004, 5-bromo-2-(5-chloro-1-methyl-3-trifluoromethyl-1H-pyrazol-4-ylmethylsulfanyl)-thiazole]	70	80	60	90	95	95	95	60					
	Cn1nc(C(F)(F)F)c(CS(=O)(=O)c2ncc(Br)s2)c1Cl [Compound No. 1.006, 5-bromo-2-(5-chloro-1-methyl-3-trifluoromethyl-1H-pyrazol-4-ylmethanesulfonyl)-thiazole]	30	70	0	80	90	95	95	30					
	Cn1nc(C(F)(F)F)c(CSc2ncc(Cl)s2)c1OCC(F)(F)F [Compound No. 1.013]	60	60	80	50	95	95	80	95					
78 to 79.5	Cn1nc(C(F)(F)F)c(C(Cl)S(=O)(=O)c2ncc(Br)s2)c1Cl (stereo not drawn) [Compound No. 1.030, 5-bromo-2-[chloro-(5-chloro-1-methyl-3-trifluoromethyl-1H-pyrazol-4-yl)-methanesulfonyl]-thiazole]													
186 to 188	Cn1nc(C(F)(F)F)c(C(F)(F)S(=O)(=O)c2ncc(Br)s2)c1Cl [Compound No. 1.033, 5-bromo-2-[(5-chloro-1-methyl-3-trifluoromethyl-1H-pyrazol-4-yl)-difluoro-methanesulfonyl]-thiazole]													
	Cn1nc(C(F)(F)F)c(C(F)(F)S(=O)(=O)c2ncc(Cl)s2)c1OCC(F)(F)F [Compound No. 1.037]	95	90	70	20	60	100	95	95					
	Cn1nc(C(F)(F)F)c(CSc2ncc(Cl)s2)c1OC(F)F [Compound No. 1.056]	70	95	80	70	90	95	95	90					
	Cn1nc(C(F)(F)F)c(CSc2ncc([N+](=O)[O-])s2)c1OCC(F)(F)F [Compound No. 1.061]	40	40	40	80	80	100	95	95					
